# BindingDB's records for doi:10.1016/j.ejmech.2017.05.061 (The University of Queensland, 2017)
# Assays:
# [1] = target: T1, Metallo-beta-lactamase AIM-1 (Pseudomonas aeruginosa, UniProt B5DCA0); assay: Competitive inhibition of Pseudomonas aeruginosa recombinant AIM1 expressed in Escherichia coli BL21(DE3) using cefuroxime as substrate by UV/Vis multi-plate spectrophotometric method
# T1 sequence (B5DCA0 whole entry): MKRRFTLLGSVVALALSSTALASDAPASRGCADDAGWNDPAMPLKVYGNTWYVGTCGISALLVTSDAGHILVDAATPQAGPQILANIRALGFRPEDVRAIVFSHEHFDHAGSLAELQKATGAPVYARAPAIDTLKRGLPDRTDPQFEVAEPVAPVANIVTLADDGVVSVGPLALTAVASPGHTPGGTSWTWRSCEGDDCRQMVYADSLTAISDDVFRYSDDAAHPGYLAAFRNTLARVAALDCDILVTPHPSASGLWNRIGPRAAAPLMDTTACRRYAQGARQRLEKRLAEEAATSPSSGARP
# [2] = target: Metallo-beta-lactamase type 2 (Aeromonas hydrophila, UniProt P26918); assay: Competitive inhibition of Aeromonas hydrophila recombinant CphA expressed in Escherichia coli BL21(DE3) using meropenem as substrate by UV/Vis multi-plate spectrophotometric method
# Sequence of Metallo-beta-lactamase type 2 (P26918 whole entry): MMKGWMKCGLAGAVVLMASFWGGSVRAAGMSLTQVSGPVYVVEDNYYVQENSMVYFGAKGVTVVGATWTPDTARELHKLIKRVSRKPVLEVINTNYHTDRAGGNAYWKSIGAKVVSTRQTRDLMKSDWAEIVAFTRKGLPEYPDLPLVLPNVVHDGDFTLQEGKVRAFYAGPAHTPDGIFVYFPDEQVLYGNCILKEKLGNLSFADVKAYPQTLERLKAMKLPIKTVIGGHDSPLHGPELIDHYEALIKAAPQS
Ki [1] [nM],Ki [2] [µM],Structure (SMILES)
1600,11,N#Cc1c(-c2ccccc2)c(-c2ccccc2)n(Cc2ccccc2)c1NC(=O)c1ccccc1
–,872,N#Cc1c(-c2ccccc2)c(-c2ccccc2)n(Cc2ccccc2)c1NC(=O)c1ccc(C(=O)c2ccccc2)cc1
2200,52,N#Cc1c(-c2ccccc2)c(-c2ccccc2)n(Cc2ccccc2)c1N

Structure (SMILES),Ki [1] [nM],Ki [2] [µM]
N#Cc1c(-c2ccccc2)c(-c2ccccc2)n(Cc2ccccc2)c1NC(=O)c1ccc([N+](=O)[O-])cc1,10900,–
